Where “and” joins values, the source holds several entries; their conditions need not be identical. Equal entries are not always repeated.
System: 227483-062-R1-J1-PDC complex spheroids with HUVEC/MSC, viability
Experiment: Anticancer human tumor 227483-062-R1-J1-PDC patient-derived pancreatic carcinoma cell line growth inhibition [CLK]
Conditions: for viability, T/C: stronger effect = lower value
Description: A high-throughput screen of multi-cell type tumor spheroids was designed to identify active combinations of […] and targeted small molecules. Complex spheroids include a stromal component modeled by human endothelial cells (HUVEC) and fibroblasts modeled by human mesenchymal stem cells (MSCs). The concentration ranges selected for each drug and investigational agent were based upon clinically achievable concentrations if the clinical Cmax of the agent was known.
Compounds. The drugs and investigational agents: cirtuvivint (SM08502; NSC835563), CC-671 (NSC850746), vemurafenib (NSC761431), tapotoclax (NSC804041), sotorasib (NSC818433), adagrasib (NSC831453), MRTX-1133 (NSC836407), BAY2416964 (NSC825713), copanlisib (NSC816437), inavolisib (NSC800729), abemaciclib (NSC768073), osimertinib (NSC779217), entinostat (NSC756642), eltanexor (KPT-8602, NSC794443), venetoclax (NSC766270), ceralasertib (NSC777638), bortezomib (NSC756655), olaparib (NSC753686), talazoparib (NSC767125), alisertib (NSC759677), peposertib (NSC802822), gemcitabine (NSC613327), 5-fluorouracil (NSC19893), SN-38 (NSC673596), oxaliplatin (NSC266046), paclitaxel (NSC125973), and doxorubicin (NSC123127), were obtained from the National Cancer Institute (NCI) Developmental Therapeutics Program Chemical Repository. The FDA-approved anticancer drug set is available from the Developmental Therapeutics Program at https://dtp.cancer.gov/organization/dscb/obtaining/available plates.htm. […] The stock solutions were prepared in dimethyl sulfoxide (DMSO, Sigma-Aldrich, St. Louis, MO, cat. D2650), except for the platinum complexes which were prepared in saline (Quality Biological, Gaithersburg, MD, cat. 114-055-101), at 800-fold the tested concentration and stored at -70 degrees C prior to their use. All drugs and investigational agents were tested over a range starting from a high concentration at or near the clinical Cmax and decreasing in half-log increments. If the clinical Cmax for an agent had not been determined, the highest concentration tested was 10 microM.
Cell Culture. All cells were maintained in an incubator at 37 degrees C and 5% CO2 with 95% humidity. The PDC lines were cultured according to standard operating procedures established by the NCI PDMR. Briefly, all PDCs were thawed and cultured in Matrigel-coated flasks prepared with a working solution of 1X Ham's F-12 nutrient mix, without supplementation (Invitrogen, Waltham, MA, cat. 11765054), 100 U/mL penicillin-streptomycin (Invitrogen, cat. 15140122), and 2.5% Matrigel (Corning Inc., Corning, NY, cat. 354248) for the first three passages. The 947758-054-R-J2-PDC line was cultured in 6B/Colon 1A media, which includes advanced DMEM/F-12 (Thermo Fisher Scientific, cat. 12634028), 10 mM HEPES (Thermo Fisher Scientific, cat. 15630080), 1X GlutaMAX supplement (Thermo Fisher Scientific, cat. 35050061), 0.1 mg/mL primocin (InvivoGen, cat. ant-pm-2), 10% defined fetal bovine serum, heat inactivated (HyClone Laboratories Inc., cat. SH30070.03HI), 1.25 mM N-Acetyl-L-cysteine (Sigma-Aldrich, cat. A9165), 10 mM nicotinamide (Sigma-Aldrich, cat. N0636), 1X B-27 supplement (Thermo Fisher Scientific, cat. 17504044), 1X N-2 supplement (Thermo Fisher Scientific, cat. 17502048), and 10 microM Y-27632 dihydrochloride (Tocris Bioscience, cat. 1254). The 876862-298-R-J1-PDC was cultured in 6E media, which includes all 6B/Colon 1A media components plus 50% L-WRN conditioned media (ATCC, cat. CRL-3276), 50 ng/mL recombinant human EGF recombinant protein (hEGF; Thermo Fisher Scientific, cat. PHG0311), 10 ng/mL recombinant human fibroblast growth factor 10 (hGFG-10; PeproTech, cat. 100-26), 1 ng/mL recombinant human fibroblast growth factor 2 (hFGF-2; PeproTech, cat. 100-18B), and 1 µM prostaglandin E2 (PGE2; Tocris, cat. 2296). The 227483-062-R1-J1-PDC line was cultured in Panc media, containing all 6E components except hFGF-2, with the addition of 500 nM SB-431542 (Selleckchem, cat. S1067) and 10 nM gastrin (Tocris, cat. 3006). […]

[1] = curve of first compound, second compound 0.0316 µM
[2] = curve of first compound, second compound 0.1 µM
[3] = curve of first compound, second compound 0.316 µM
[4] = curve of first compound, second compound 1 µM
[5] = curve of first compound, second compound 3.16 µM
[6] = curve of first compound, second compound 10 µM
[7] = second compound 0.0316 µM, first compound 0.0316 µM
[8] = second compound 0.0316 µM, first compound 0.1 µM
[9] = second compound 0.0316 µM, first compound 0.316 µM
[10] = second compound 0.0316 µM, first compound 1 µM
[11] = second compound 0.0316 µM, first compound 3.16 µM
[12] = second compound 0.0316 µM, first compound 10 µM
[13] = second compound 0.1 µM, first compound 0.0316 µM
[14] = second compound 0.1 µM, first compound 0.1 µM
[15] = second compound 0.1 µM, first compound 0.316 µM
[16] = second compound 0.1 µM, first compound 1 µM
[17] = second compound 0.1 µM, first compound 3.16 µM
[18] = second compound 0.1 µM, first compound 10 µM
[19] = second compound 0.316 µM, first compound 0.0316 µM
[20] = second compound 0.316 µM, first compound 0.1 µM
[21] = second compound 0.316 µM, first compound 0.316 µM
[22] = second compound 0.316 µM, first compound 1 µM
[23] = second compound 0.316 µM, first compound 3.16 µM
[24] = second compound 0.316 µM, first compound 10 µM
[25] = second compound 1 µM, first compound 0.0316 µM
[26] = second compound 1 µM, first compound 0.1 µM
[27] = second compound 1 µM, first compound 0.316 µM
[28] = second compound 1 µM, first compound 1 µM
[29] = second compound 1 µM, first compound 3.16 µM
[30] = second compound 1 µM, first compound 10 µM
[31] = second compound 3.16 µM, first compound 0.0316 µM
[32] = second compound 3.16 µM, first compound 0.1 µM
[33] = second compound 3.16 µM, first compound 0.316 µM
[34] = second compound 3.16 µM, first compound 1 µM
[35] = second compound 3.16 µM, first compound 3.16 µM
[36] = second compound 3.16 µM, first compound 10 µM
[37] = second compound 10 µM, first compound 0.0316 µM
[38] = second compound 10 µM, first compound 0.1 µM
[39] = second compound 10 µM, first compound 0.316 µM
[40] = second compound 10 µM, first compound 1 µM
[41] = second compound 10 µM, first compound 3.16 µM
[42] = second compound 10 µM, first compound 10 µM
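Further: spheroids exposed to compounds for seven days before readout.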
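Wherever viability, T/C is given: percent of DMSO vehicle control luminescence as 100% viability.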

With `O=C(c1cc(Cc2n[nH]c(=O)c3ccccc23)ccc1F)N1CCN(C(=O)C2CC2)CC1` + CN1CCN(c2cc(C(=O)Nc3cc4cc(-c5cnn(C)c5)ccc4cn3)ccn2)CC1 the IC50 [1] was > 10000 nM, the IC50 [2] was > 10000 nM and the IC50 [3] was < 31.6 nM. The IC50 [4] was < 31.6 nM, the IC50 [5] was < 31.6 nM and the IC50 [6] was < 31.6 nM. The viability, T/C [7] was 94.6%, the viability, T/C [8] was 105% and the viability, T/C [9] was 129%. For the same compound, the viability, T/C [10] was 100%, the viability, T/C [11] was 121% and the viability, T/C [12] was 99.7%. The viability, T/C [13] was 54.3%, the viability, T/C [14] was 87.4% and the viability, T/C [15] was 60.1%. For the same compound, the viability, T/C [16] was 81.2%, the viability, T/C [17] was 84.4% and the viability, T/C [18] was 78.9%. For the same compound, the viability, T/C [19] was 6.03%, the viability, T/C [20] was 6.34% and the viability, T/C [21] was 4.67%. For the same compound, the viability, T/C [22] was 4.91%, the viability, T/C [23] was 5.89% and the viability, T/C [24] was 5.77%. It also gave a viability, T/C [25] of 2.77%, a viability, T/C [26] of 1.94% and a viability, T/C [27] of 1.82%. It also gave a viability, T/C [28] of 2.7%, a viability, T/C [29] of 2.26% and a viability, T/C [30] of 1.69%. It also gave a viability, T/C [31] of 7.27%, a viability, T/C [32] of 3.78% and a viability, T/C [33] of 4.39%. For the same compound, the viability, T/C [34] was 2.51%, the viability, T/C [35] was 4.57% and the viability, T/C [36] was 3.8%. The viability, T/C [37] was 4.72%, the viability, T/C [38] was 2.86% and the viability, T/C [39] was 2.33%. It also gave a viability, T/C [40] of 2.8%, a viability, T/C [41] of 2.43% and a viability, T/C [42] of 2.26%.

In the case of `Nc1ccccc1NC(=O)c1ccc(CNC(=O)OCc2cccnc2)cc1` + CNC(=O)c1ccc(Nc2nc(OC3CCCC3)c3c(-c4ccc5nc(C)oc5c4)c[nH]c3n2)c(OC)c1, the IC50 [1] is reported as > 10000 nM, the IC50 [2] is reported as 8510 nM and the IC50 [3] is reported as 5130 nM. The IC50 [4] was 531 nM, the IC50 [5] was < 31.6 nM and the IC50 [6] was < 31.6 nM. It also gave a viability, T/C [7] of 90.9%, a viability, T/C [8] of 88.5% and a viability, T/C [9] of 109%. The viability, T/C [10] was 111%, the viability, T/C [11] was 118% and the viability, T/C [12] was 75.8%. The viability, T/C [13] was 73.3%, the viability, T/C [14] was 88.6% and the viability, T/C [15] was 94.6%. The viability, T/C [16] was 107%, the viability, T/C [17] was 96.5% and the viability, T/C [18] was 43%. The viability, T/C [19] was 82.1%, the viability, T/C [20] was 72.9% and the viability, T/C [21] was 78.7%. It also gave a viability, T/C [22] of 78.3%, a viability, T/C [23] of 65.8% and a viability, T/C [24] of 28%. For the same compound, the viability, T/C [25] was 53.6%, the viability, T/C [26] was 45.7% and the viability, T/C [27] was 53.4%. For the same compound, the viability, T/C [28] was 50.1%, the viability, T/C [29] was 40.6% and the viability, T/C [30] was 14.5%. The viability, T/C [31] was 37.4%, the viability, T/C [32] was 44.2% and the viability, T/C [33] was 39.7%. For the same compound, the viability, T/C [34] was 30.1%, the viability, T/C [35] was 17.3% and the viability, T/C [36] was 7.51%. For the same compound, the viability, T/C [37] was 33%, the viability, T/C [38] was 30.8% and the viability, T/C [39] was 32.2%. It also gave a viability, T/C [40] of 19.4%, a viability, T/C [41] of 16.6% and a viability, T/C [42] of 5.89%.

With `C=CC(=O)Nc1cc(Nc2nccc(-c3cn(C)c4ccccc34)n2)c(OC)cc1N(C)CCN(C)C` the viability, T/C (compound 0.000949 µM) was 99.8% and 83%, the viability, T/C (compound 0.003 µM) was 104% and 92.1% and the viability, T/C (compound 0.00949 µM) was 103% and 119%. For the same compound, the viability, T/C (compound 0.03 µM) was 113% and 109%, the viability, T/C (compound 0.0949 µM) was 95.1% and 102% and the viability, T/C (compound 0.3 µM) was 84.3% and 81.2%. For the same compound, the IC50 (curve of compound) was > 300 nM.
